Key:
[1] = test system: ddy male mice; assay: Acute Toxicity Test (minimum lethal dose); assay type: in vivo; conditions: intraperitoneal, ddy male mice 20±1 g, mortality seven days after administration
Excerpt: Test compounds were intraperitoneally administered to groups of ddy male mice weighing 20±1 g.

[2] = test system: male mice; assay: Evaluation Test of Analgesic Activity (acetic acid intraperitoneally, number of risings); assay type: in vivo; conditions: Mus musculus, po, 10 mg/kg orally, after 1 hour 0.7% acetic acid i.p. 0.1 ml per 10 g, number of risings for 5 minutes, 10 minutes after, vs control, read-out: Inhibition Rate
Experimental: Evaluation Test of Analgesic Activity
Test compounds (10 mg/kg) were orally administered to groups of male mice, each group consisting of 4 to 12 mice, and after 1 hour, the mice were administered intraperitoneally with a 0.7% acetic acid aqueous solution in a dose of 0.1 ml per weight of 10 g. Then, the number of the risings manifested for 5 minutes 10 minutes after the administration was compared with a control group to calculate inhibition rate.

Row | SMILES | minimum lethal dose (MLD) [1] [mg/kg] | inhibition in vivo at 10 mg/kg [2] [%]
1 | Cc1ccc2c(c1)C(N1CCC(O)(c3ccccc3)CC1)c1ccccc1CO2 (centres unmarked) [Compound 2, 11-(4-Hydroxy-4-phenylpiperidine-1-yl)-2-methyl-6,11-dihydrodibenzo[b,e] oxepine] | > 100 | 83
2 | Cc1cccc(C2(O)CCN(C3c4ccccc4COc4ccc(C)cc43)CC2)c1 (centres unmarked) [Compound 3, 11-[4-Hydroxy-4-(3-methylphenyl)piperidine-1-yl]-2-methyl-6,11-dihydrodibenzo[b,e] oxepine] | > 100 | 90
3 | Cc1ccc2c(c1)C(N1CCC(O)(c3cccc(C(F)(F)F)c3)CC1)c1ccccc1CO2 (centres unmarked) [Compound 4, 11-[4-Hydroxy-4-(3-trifluoromethylphenyl)piperidine-1-yl]-2-methyl-6,11-dihydrodibenzo[b,e] oxepine] | > 100 | 96
4 | Cc1ccc2c(c1)C(N1CCC(O)(c3ccc(Cl)cc3)CC1)c1ccccc1CO2 (centres unmarked) [Compound 5, 11-[4-(4-Chlorophenyl)-4-hydroxypiperidine-1-yl]-2-methyl-6,11-dihydrodibenzo[b,e] oxepine] | > 100 | 72
5 | CCc1ccc2c(c1)C(N1CCC(O)(c3ccccc3)CC1)c1ccccc1CO2 (centres unmarked) [Compound 8, 2-Ethyl-11-(4-hydroxy-4-phenylpiperidine-1-yl)-6,11-dihydrodibenzo[b,e] oxepine] | > 100 | 94
6 | OCc1ccc2c(c1)C(N1CCC(O)(c3ccccc3)CC1)c1ccccc1CO2 (centres unmarked) [Compound 19, 11-(4-Hydroxy-4-phenylpiperidine-1-yl)-2-hydroxymethyl-6,11-dihydrodibenzo[b,e] oxepine] | > 100 | 76
7 | CC(O)c1ccc2c(c1)C(N1CCC(O)(c3ccccc3)CC1)c1ccccc1CO2 (centres unmarked) [Compound 22, 11-(4-Hydroxy-40phenylpiperidine-1-yl)-2-(1-hydroxyethyl)-6,11-dihydrodibenzo[b,e] oxepine] | > 100 | 100
8 | OCc1ccc2c(c1)C(N1CCC(O)(c3cccc(C(F)(F)F)c3)CC1)c1ccccc1CO2 (centres unmarked) [Compound 24, 11-[4-Hydroxy-4-(3-trifluoromethylphenyl)piperidine-1-yl]-2-hydroxymethyl-6,11-dihydrodibenzo[b,e] oxepine] | > 100 | 100
9 | Cc1ccc2c(c1)C(N1CCC(O)(c3ccccc3)CC1)c1cccnc1CO2 (centres unmarked) [Compound 27, 5-(4-Hydroxy-4-phenylpiperidine-1-yl)-7-methyl-5,11-dihydrobenzo[3,4-b] oxepinopyridine] | – | 100

From patent publication US6150355A, “Phenylpiperidine derivative” (Kyowa Hakko Kogyo Co., Ltd., priority 1995, dated 2000)
